Measured values: patent US20180230143A1, “INHIBITORS OF NHR2 AND/OR RUNX1/ETO-TETRAMERIZATION” (Heinrich-Heine-Universität Düsseldorf, priority 2013, published 2018)
pIC50: −log10 of the molar value. Where two headings read alike, the source gives them in different places.

Experiments:
[1] = target: T1, RUNX1-BCR protein (Homo sapiens, UniProt P11274+Q01196); test: ABCD (avidin, biotin, complex, DNA) assay with RUNX1-BCR protein; format: biochemical; conditions: for inhibition at 1000 µM: read-out: ABCD Inhibition [%] BCR; for inhibition of binding of the RUNX1-BCR protein, ABCD: c=1100 μM in ABCD assay
T1 construct: replacing the NHR2 domain of the construct with the homologous BCR tetramerization domain (RUNX1-BCR protein); His6 (C); made in house; host or cells: E. coli BL21(DE3)
Description: (§1) Oligonucleotides were annealed to the corresponding unmodified antisense oligonucleotide to generate the RUNX1 binding site. Purified RUNX1 proteins were pre-incubated with a compound for 1 h at 4° C. Similarly the biotinylated double-stranded oligonucleotides were pre-incubated with streptavidin coated magnetic beads (Dynabeads M-280 Streptavidin, Invitrogen) for 1 h at 4° C. Protein/compound samples and beads with bound oligonucleotide were incubated in binding buffer (25 mM HEPES, pH 7.5, 50 mM KCl, 1 mM EDTA, pH 8.0, 10 mM MgCl2, 5% glycerol, 1 mM DTT) in the presence of 2% IGEPAL CA-630, 1 μg of salmon sperm, and 0.1% BSA for […]. After washing three times, the bound proteins were eluted from beads in SDS-PAGE sample buffer and resolved on SDS-PAGE followed by immunoblotting with a primary anti-myc (9E10, Santa Cruz) antibody and a secondary HRP-coupled antibody (goat anti-mouse IgG-HRP, Santa Cruz).

[2] = target: T2, RUNX1-NHR2 protein (Homo sapiens, UniProt Q01196+Q06455); test: ELISA: tetramer-dependent binding of RUNX1-NHR2 protein to immobilized RUNX3 oligonucleotide; format: biochemical; conditions: for inhibition at 1000 µM / inhibition at 2000 µM: read-out: ELISA Inhibition [%] NHR2; for inhibition of tetramer-dependent binding of the RUNX1-NHR2 protein to immobilized RUNX3 oligonucleotide, ELISA: [P1]=500 μM and [PPIM]=2000 μM in ELISA; for IC50: inhibition of tetramerization of the RUNX1-NHR2 protein
T2 construct: the wild type NHR2 tetramerization domain or the homologous BCR tetramerization domain (highlighted) are optionally enclosed by an N-terminal RUNX1 domain; His6 (C); made in house; host or cells: E. coli BL21(DE3)
Description: Preferably, for enzyme-linked immunosorbent assays (ELISA), wells of a 96 well plate were coated with 100 ng streptavidin (Dianova) in PBS over night at 4° C. […] Binding of RUNX1-containing proteins to the R3 oligonucleotide was detected with a primary anti-myc antibody (9E10, Santa Cruz) and a secondary HRP-coupled antibody (donkey anti-mouse IgG-HRP, Santa Cruz). ELISA was developed using the Sure Blue TMB Microwell Peroxidase substrate (KLP), and the reaction was stopped with sulfuric acid (1 N). Absorption at 450 nm and 650 nm was measured with the Spectra Max 340, Molecular Devices. Preferably, the ELISA assay is as further described in the experimental section.
The inhibition of NHR2 tetramerization was measured in vitro by tetramer-dependent binding of a RUNX1-NHR2 protein construct to an immobilized oligonucleotide derived from the RUNX3 promoter sequence in ELISA and ABCD assays. […] Furthermore, the influence of the inhibitors on the viability of RUNX1/ETO-dependent SKNO-1 cells was determined; as a control RUNX1/ETO-independent U937 cells were used.
The principle of the biochemical assays for measuring inhibition of NHR2 tetramerization is illustrated in FIG. 1. NHR2 tetramerization and its inhibition was measured in a purpose-built sandwich ELISA (enzyme-linked immunosorbent assay: FIG. 1A). • i) The RUNX1-NHR2 tetramer specifically binds to the biotinylated RUNX3-oligonucleotide (RUNX3-oligo^bio) that is immobilized on a streptavidine coated surface (SA). Disrupting the RUNX1-NHR2 tetramer into dimers leads to a release of the RUNX1-NHR2 protein from the surface. Antibody-conjugated horseradish peroxidase (HRP) binds to a primary anti-myc antibody (α-myc AB) that binds to the immobilized myc-labeled RUNX1-NHR2 tetramer. HRP catalyzes the conversion of 3,3′,5,5′-tetramethylbenzidine (TMB) to 3,3′,5,5-tetramethylbenzidine diimine.
Wells of a 96 well plate were coated with 100 ng streptavidin (Dianova) in PBS over night at 4° C. […] RUNX1-containing proteins were incubated with synthetic peptides or chemical compounds in binding buffer (25 mM HEPES, pH 7.5, 50 mM KCl, 1 mM EDTA, pH 8.0, 10 mM MgCl2, 5% glycerol, 1 mM DTT) in the presence of 1 μg salmon sperm and 1% IGEPAL CA-630 for 5 h and subsequently added to the streptavidin-bound R3 oligonucleotide for 15 min on the 96 well plate. Binding of RUNX1-containing proteins to the R3 oligonucleotide was detected with a primary anti-myc antibody (9E10, Santa Cruz) and a secondary HRP-coupled antibody (donkey anti-mouse IgG-HRP, Santa Cruz). ELISA was developed using the Sure Blue TMB Microwell Peroxidase substrate (KLP), and the reaction was stopped with sulfuric acid (1 N). Absorption at 450 nm and 650 nm was measured with the Spectra Max 340, Molecular Devices.

[3] = target: T1, RUNX1-BCR protein; test: ELISA: tetramer-dependent binding of RUNX1-BCR protein to immobilized RUNX3 oligonucleotide (selectivity control); format: biochemical; conditions: for inhibition at 1000 µM / inhibition at 2000 µM: read-out: ELISA Inhibition [%] BCR; for inhibition of binding of the RUNX1-BCR protein, ELISA: [P1]=500 μM and [PPIM]=2000 μM in ELISA
[4] = target: T2, RUNX1-NHR2 protein; test: ABCD (avidin, biotin, complex, DNA) assay with RUNX1-NHR2 protein; format: biochemical; conditions: for inhibition at 1000 µM: read-out: ABCD Inhibition [%] NHR2; for inhibition of tetramer-dependent binding of the RUNX1-NHR2 protein to immobilized RUNX3 oligonucleotide, ABCD: c=1100 μM in ABCD assay
Description: as §1

[5] = system: SKNO-1 cells; test: Cell survival assay (XTT), RUNX1/ETO-dependent SKNO-1 cells; format: cell-based; conditions: daily treated with 1 μM or 10 μM; XTT at days 3, 5, and 7
Description: Cell proliferation and viability were measured with the cell proliferation kit II (XTT, Roche Applied Science). The XTT assay was performed at days 3, 5, and 7. […] SKNO-1 cells were cultured in RPMI 1640+10% FCS and 7 ng ml^−1 human GM-CSF. […] Cell proliferation and viability were measured with the cell proliferation kit II (XTT, Roche Applied Science). 3000 cells per well were cultured in a 96 well plate and daily treated with compounds at different concentrations. The XTT assay was performed at days 3, 5, and 7.

[6] = system: SKNO-1 cells; test: FACS analysis of CD11b expression, SKNO-1 cells; format: cell-based; conditions: 25 μM for four days, at the day of injection
Description: (§3) For the experiment, the SCID- or SCUD-gamma chain mouse model was used. The experiment investigates if the transplantation of the AML cell line SKNO-1 after treatment with either 7.44 or 7.38 leads to reduced tumor growth. […] For this, the cells were treated in vitro with 25 μM of the respective compound for four days. Furthermore, untreated SKNO-1 and CML cell lines were used. […] At day 5 the number of living cells was determined, and 5×10^5 SKNO-1 cells or 5×10^5 K562 cells were injected per transplant. Per mouse, untreated and treated cells were injected into the left and right flank, respectively.
At the day of injection, the expression of the surface marker CD11b, a measure for cell differentiation, was determined (FIG. 5E) as was the rate of apoptosis (FIG. 5F).

[7] = system: SKNO-1 cells; test: Xenotransplantation of pre-treated SKNO-1 cells in SCID mice; format: in vivo, mouse; conditions: cells treated in vitro with 25 μM for four days, injected subcutaneously, versus untreated cells
Description: The effect of the inhibition of NHR2 tetramerization was measured in a mouse model (xenotransplantation of SKNO-1 and K562 cells in SCID mice).
as §3
For determining the tumor volume, the length and the width of the tumor was measured twice weekly, starting one week after the transplantation (FIGS. 5A and 5B). […] At the end of the experiment, the tumors were freed and weighed (FIGS. 5C and 5D).

[8] = target: T3, NHR2 protein (Homo sapiens, UniProt Q06455); test: BS3 cross-linking assay of NHR2 oligomers; format: biochemical; conditions: for inhibition of NHR2 tetramerization (reduction of BS3 cross-linked NHR2 oligomers): c=1100 μM
T3 construct: the wild type NHR2 tetramerization domain or the homologous BCR tetramerization domain (highlighted) are optionally enclosed by an N-terminal RUNX1 domain; His6 (C); made in house; host or cells: E. coli BL21(DE3)
T3 sequence (Q06455 334-400): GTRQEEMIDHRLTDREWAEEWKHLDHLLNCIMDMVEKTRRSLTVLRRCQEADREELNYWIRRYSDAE
Description: (§2) Preferably, for the cross-linking assay, purified NHR2 protein or NHR2-containing protein (5 μM) was incubated with the peptides at 4° C. for 1 h. The BS^3 (Bis[sulfosuccinimidyl] suberate) crosslink-reaction was performed at a final concentration of 1 mM for 30 min at RT. Tris-HCl (0.05 M, pH 7.4) was added to the reaction mix and incubated for 10 min to stop the reaction. Protein-oligomer nation was analyzed by western blotting. For protein detection, the membrane was incubated with a primary anti-myc antibody (9E10, Santa Cruz) and a secondary HRP-coupled antibody (goat anti-mouse IgG-HRP, Santa Cruz). Preferably, the cross-linking assay is as further described in the experimental section.
as §2, with “Purified” for “Preferably, for the cross-linking assay, purified”, “NHR2” for “NHR2 protein or NHR2-containing”, “Protein-oligomerization” for “Protein-oligomer nation”, “Cruz).” for “Cruz). Preferably, the cross-linking assay is as further described in the experimental section.”

[9] = relative inhibition at 1 mM inhibitor concentration, RUNX1-BCR
[10] = relative inhibition at 1 mM inhibitor concentration, RUNX1-NHR2 protein
[11] = measured at 2 mM concentration, RUNX1-NHR2 protein
[12] = measured at 2 mM concentration, RUNX1-BCR

T1 sequence (Q01196+P11274 fused): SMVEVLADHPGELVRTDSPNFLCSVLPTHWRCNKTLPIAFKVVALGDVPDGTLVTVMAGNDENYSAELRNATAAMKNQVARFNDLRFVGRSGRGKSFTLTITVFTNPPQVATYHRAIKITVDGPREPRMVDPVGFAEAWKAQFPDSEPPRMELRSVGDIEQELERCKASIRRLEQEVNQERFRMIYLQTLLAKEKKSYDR
T2 sequence (Q01196+Q06455 fused): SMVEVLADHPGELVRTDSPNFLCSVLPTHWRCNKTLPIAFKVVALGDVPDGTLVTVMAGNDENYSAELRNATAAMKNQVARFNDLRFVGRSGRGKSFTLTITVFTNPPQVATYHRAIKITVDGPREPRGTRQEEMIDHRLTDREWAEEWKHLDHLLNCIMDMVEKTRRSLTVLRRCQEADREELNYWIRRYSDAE

With `Cc1c(CC(=O)NCCC(=O)O)c(=O)oc2c(C)c3occ(C(C)(C)C)c3cc12` [Compound 5.17, 3-(2-(3-tert-butyl-5,9-dimethyl-7-oxo-7H-furo[3,2-g]chromen-6-yl)acetamido)propanoic acid] the inhibition at 1000 µM [1, 9] was 95.3%, the inhibition at 1000 µM [2, 10] was 41.7% and the inhibition at 1000 µM [3, 9] was 15.9%. For the same compound, the inhibition at 1000 µM [4, 10] was 89.5%.
`COc1ccc(-c2ccc(CCC(=O)O)n2CCC(=O)O)cc1` [Compound 5.8, 3,3′-(5-(4-methoxyphenyl)-1H-pyrrole-1,2-diyl)dipropanoic acid] showed an inhibition at 1000 µM [1] of 56.1%, an inhibition at 1000 µM [2] of 70.3% and an inhibition at 1000 µM [3] of 12%. The inhibition at 1000 µM [4] was 68.2%.
For `Cc1c(C(=O)O)[nH]c(/C=C/C(=O)O)nc1=O` [Compound 7.38, (E)-2-(2-carboxyvinyl)-5-methyl-6-oxo-3,6-dihydropyrimidine-4-carboxylic acid, reference compound], the inhibition at 1000 µM [1, 9] was 26.1%, the “inhibition of tetramer-dependent binding of the RUNX1-NHR2 protein to immobilized RUNX3 oligonucleotide, ELISA” value (shortened to “inhibition of tetramer-dependent binding … ELISA”) [2] was “not” and the IC50 [2] was over 2000 µM. The inhibition at 2000 µM [2, 11] was 4%, the “proliferation of SKNO-1 cells (XTT assay)” value [5] was “did not affect” and the “increase of the CD11b expression in SKNO-1 cells” value [6] was 2%. The “tumor growth (tumor volume) of transplanted SKNO-1 cells” value [7] was “small reduction” and the inhibition at 1000 µM [4, 10] was 20.1%.
Compound `Cc1ccc(OCC(=O)O)c(OCC(=O)O)c1` [Compound 7.3, 2-[2-(carboxymethyloxy)-4-methyl-phenoxy]acetic acid] has an inhibition at 1000 µM [1, 9] of 28.5%, an inhibition at 2000 µM [2, 11] of 94.4% and an inhibition at 2000 µM [3, 12] of 31.5%. For the same compound, the inhibition at 1000 µM [4, 10] was 57.7%.
With `Cc1oc(C(=O)O)cc1CSCc1cc(C(=O)O)oc1C` [Compound 5.9, 5,5′-dimethyl-4,4′-(sulfanediylbis(methyl))-di(furan-2-carboxylic acid)] the inhibition at 1000 µM [1, 9] was 14.6%, the inhibition at 1000 µM [2, 10] was 51.7% and the inhibition at 1000 µM [3, 9] was 20.7%. For the same compound, the inhibition at 1000 µM [4, 10] was 52.5%.
`O=C(O)COc1cccc(OCC(=O)O)c1` [Compound 7.4, 2,2′-(1,3-phenylenebis(oxy))diacetic acid] gave an inhibition at 1000 µM [1, 9] of 6.1%, an inhibition at 2000 µM [2, 11] of 71.6% and an inhibition at 2000 µM [3, 12] of 10%. For the same compound, the inhibition at 1000 µM [4, 10] was 47.4%.
For “Ac-VARRCAEAAREALNYAIR-NH2 [P3, reference compound]”, the IC50 [2] was over 2000 µM and the “inhibition of NHR2 tetramerization (reduction of BS3 cross-linked NHR2 oligomers)” value [8] was “neither P2, P3 nor the unrelated peptide CP inhibit NHR2 tetramerization”.
In the case of `COc1cc(CC(C(=O)O)C(C)C(=O)c2ccc3c(c2)OCO3)cc(OC)c1OC` (stereo not drawn) [Compound 7.18, 4-(benzo[d][1,3]dioxol-5-yl)-3-methyl-4-oxo-2-(3,4,5-trimethoxybenzyl)butanoic acid], the “inhibition of binding of the RUNX1-BCR protein, ABCD” value [1] was “is not inhibited”, the inhibition at 1000 µM [1] was -2.2% and the “inhibition of tetramer-dependent binding … ELISA” value [2] was “selectively inhibit”. The inhibition at 2000 µM [2] was 47.7%, the “inhibition of binding of the RUNX1-BCR protein, ELISA” value [3] was “is not inhibited” and the inhibition at 2000 µM [3] was -6.7%. The “inhibition of tetramer-dependent binding of the RUNX1-NHR2 protein to immobilized RUNX3 oligonucleotide, ABCD” value [4] was “selectively inhibit” and the inhibition at 1000 µM [4] was 80.2%.
“Ac-VLRRCQEADREELNYWIR-NH2 [P1, reference compound]” was tested, and the “inhibition of binding of the RUNX1-BCR protein, ABCD” value [1] was “is not inhibited”, the “inhibition of tetramer-dependent binding … ELISA” value [2] was “selectively inhibit” and the IC50 [2] was 460 µM. For the same compound, the inhibition at 1000 µM [2, 10] was 42.8%, the “inhibition of binding of the RUNX1-BCR protein, ELISA” value [3] was “is not inhibited” and the inhibition at 1000 µM [3, 9] was 9.2%. The “inhibition of tetramer-dependent binding of the RUNX1-NHR2 protein to immobilized RUNX3 oligonucleotide, ABCD” value [4] was “selectively inhibit”, the “dose dependence of inhibition of NHR2 tetramerization (cross-linking)” value [8] was “dose-dependent” and the “inhibition of NHR2 tetramerization (reduction of BS3 cross-linked NHR2 oligomers)” value [8] was “inhibit NHR2 tetramerization”. For the same compound, the pIC50 ([8]; read-out: IC50 of inhibition of NHR2 tetramerization (cross-linking)) was 3.60.
With `O=C(O)c1ccccc1OCc1cn2ccccc2n1` [Compound 2b, 2-(imidazo[1,2-a]pyridin-2-ylmethoxy)benzoic acid] the inhibition at 1000 µM [1, 9] was 11.8%, the inhibition at 50 µM ([2]; measured at 50 μM concentration, RUNX1-NHR2 protein) was 83.1% and the inhibition at 50 µM ([3]; measured at 50 μM concentration, RUNX1-BCR) was 41.5%. The inhibition at 1000 µM [4, 10] was 49.4%.
In the case of `COc1ccc(OC)c2[nH]c(C(=O)NCC3(CC(=O)O)CCCCC3)cc12` [Compound 5.18, 2-(1-((4,7-dimethoxy-1H-indole-2-carboxamido)methyl)cyclohexyl)acetic acid], the inhibition at 1000 µM [1, 9] was 52.6%, the inhibition at 1000 µM [2, 10] was 80.5% and the inhibition at 1000 µM [3, 9] was 3.9%. The inhibition at 1000 µM [4, 10] was 83%.
For `O=C(CSc1nc2ccccc2[nH]1)Nc1ccc(Cl)c(C(=O)O)c1` [Compound 5.4, 5-(2-(1H-benzo[d]imidazol-2-ylthio)acetamido)-2-chlorobenzoic acid], the inhibition at 1000 µM [1, 9] was -3.3%, the inhibition at 1000 µM [2, 10] was 89.7% and the inhibition at 1000 µM [3, 9] was 35.4%. For the same compound, the inhibition at 1000 µM [4, 10] was 63.9%.
